Among the data in patent US20090318431A1, “BENZOXAZINONE AND BENZOXAZEPINONE OXAZOLIDINONES AS ANTIBACTERIAL AGENTS” (Pfizer Inc., priority 2006, published 2009) are MIC values, retold here.

≈ marks a conversion by molar mass, not a printed value.

Type in all cases: cell-based
For one experiment, the system named is S. aureus UC-76 SA-1. As to the kind of experiment: in vitro antibacterial activity (MIC), S. aureus. Conditions: Staphylococcus aureus, UC76, strain UC-76 SA-1, lowest concentration preventing macroscopically visible growth. The text has this:
(§1) The in vitro antibacterial activity of the compounds of the present invention may be assessed by following procedures recommended in (1) National Committee for Clinical Laboratory Standards (January 2003), Methods for dilution antimicrobial tests for bacteria that grow aerobically, Approved Standard (6th ed), M7-A6, NCCLS, Wayne, Pa.; (2) National Committee for Clinical Laboratory Standards (March 2001), Methods for antimicrobial susceptibility testing of anaerobic bacteria, Approved Standard (5th ed), M11-A4, NCCLS, Wayne, Pa.; (3) National Committee for Clinical Laboratory Standards (Jan. 2003), MIC testing supplemental tables, M100-S13 (for use with M7-A6), NCCLS, Wayne, Pa.; and (4) Murray P R, Baron E J, Jorgensen J H, et al. Manual of Clinical Microbiology (8th ed) Washington, D.C.: American Society for Microbiology Press, 2003. The antibacterial activity can be presented in the form of MIC value. The MIC value is the lowest concentration of drug, which prevented macroscopically visible growth under the conditions of the test.

The test system of a further experiment is E. faecalis MGH-2 EF 1-1. Nature of the experiment: in vitro antibacterial activity (MIC), E. faecalis. Conditions: Enterococcus faecalis, MGH2EF11, strain MGH-2 EF 1-1, lowest concentration preventing macroscopically visible growth.
Description: as §1

In a further experiment the test system is S. pneumoniae SV1 SP-3. Nature of the experiment: in vitro antibacterial activity (MIC), S. pneumoniae. As to conditions: Streptococcus pneumoniae, SV1SP3, strain SV1 SP-3, lowest concentration preventing macroscopically visible growth.
Description: as §1

As a reminder, the MIC is the smallest concentration in the dilution series that meets the test's criterion for growth inhibition. For `CC(=O)NC[C@H]1CN(c2ccc3c(c2)COC(=O)N3C)C(=O)O1` [Example 1, (S)—N-((3-(1-methyl-2-oxo-2,4-dihydro-1H-benzo[d][1,3]oxazin-6-yl)-2-oxooxazolidin-5-yl)methyl)acetamide], the minimum inhibitory concentration (MIC) against S. aureus UC-76 SA-1 was 4 µg/mL (≈ 12.5 µM); in the experiment on E. faecalis MGH-2 EF 1-1, 4 µg/mL (≈ 12.5 µM); in the experiment on S. pneumoniae SV1 SP-3, 2 µg/mL (≈ 6.26 µM).

With `CCC(=O)NC[C@H]1CN(c2ccc3c(c2)COC(=O)N3C)C(=O)O1` [Example 2, (S)—N-((3-(1-methyl-2-oxo-2,4-dihydro-1H-benzo[d][1,3]oxazin-6-yl)-2-oxooxazolidin-5-yl)methyl)propionamide], the figures for the MIC against S. aureus UC-76 SA-1, against E. faecalis MGH-2 EF 1-1 and against S. pneumoniae SV1 SP-3 were 8 µg/mL (≈ 24 µM), 8 µg/mL (≈ 24 µM) and 4 µg/mL (≈ 12 µM), respectively.

For `COC(=O)NC[C@H]1CN(c2ccc3c(c2)COC(=O)N3C)C(=O)O1` [Example 3, (S)-methyl (3-(1-methyl-2-oxo-2,4-dihydro-1H-benzo[d][1,3]oxazin-6-yl)-2-oxooxazolidin-5-yl)methylcarbamate], the MIC with S. aureus UC-76 SA-1, in the experiment on E. faecalis MGH-2 EF 1-1 and in the experiment on S. pneumoniae SV1 SP-3 was 4 µg/mL (≈ 11.9 µM) throughout.

For the compound `CN1C(=O)OCc2cc(N3C[C@H](C(N)=O)OC3=O)ccc21` [Example 4, (R)-3-(1-methyl-2-oxo-2,4-dihydro-1H-benzo[d][1,3]oxazin-6-yl)-2-oxooxazolidine-5-carboxamide], the values for the MIC in the experiment with S. aureus UC-76 SA-1, in the experiment with E. faecalis MGH-2 EF 1-1 and in the experiment with S. pneumoniae SV1 SP-3 were 4 µg/mL (≈ 13.7 µM), 16 µg/mL (≈ 54.9 µM) and 4 µg/mL (≈ 13.7 µM), respectively.

Regarding `CNC(=O)[C@H]1CN(c2ccc3c(c2)COC(=O)N3C)C(=O)O1` [Example 5, (R)—N-methyl-3-(1-methyl-2-oxo-2,4-dihydro-1H-benzo[d][1,3]oxazin-6-yl)-2-oxooxazolidine-5-carboxamide], the results for the MIC against S. aureus UC-76 SA-1, with E. faecalis MGH-2 EF 1-1 and in the experiment on S. pneumoniae SV1 SP-3 were 4 µg/mL (≈ 13.1 µM), 16 µg/mL (≈ 52.4 µM) and 4 µg/mL (≈ 13.1 µM), respectively.

As to `CN1C(=O)OCc2cc(N3C[C@H](CNC(=O)OCF)OC3=O)ccc21` [Example 6, (S)-Fluoromethyl (3-(1-methyl-2-oxo-2,4-dihydro-1H-benzo[d][1,3]oxazin-6-yl)-2-oxooxazolidin-5-yl)methylcarbamate], the MIC against S. aureus UC-76 SA-1 was found to be 8 µg/mL (≈ 22.6 µM); in the experiment on E. faecalis MGH-2 EF 1-1, 8 µg/mL (≈ 22.6 µM); in the experiment on S. pneumoniae SV1 SP-3, 2 µg/mL (≈ 5.66 µM).

With `CN1C(=O)OCc2cc(N3C[C@H](Cn4ccnn4)OC3=O)ccc21` [Example 7, (R)-6-(5-((1H-1,2,3-triazol-1-yl)methyl)-2-oxooxazolidin-3-yl)-1-methyl-1H-benzo[d][1,3]oxazin-2(4H)-one], the values for the minimal inhibitory concentration (MIC) against S. aureus UC-76 SA-1, against E. faecalis MGH-2 EF 1-1 and in the experiment on S. pneumoniae SV1 SP-3 were 16 µg/mL (≈ 48.6 µM), 32 µg/mL (≈ 97.2 µM) and 16 µg/mL (≈ 48.6 µM), respectively.

As to `CN1C(=O)OCc2cc(N3C[C@H](C(N)=O)OC3=O)cc(F)c21` [Example 8, (R)-3-(8-fluoro-1-methyl-2-oxo-2,4-dihydro-1H-benzo[d][1,3]oxazin-6-yl)-2-oxooxazolidine-5-carboxamide], the MIC amounted to 8 µg/mL (≈ 25.9 µM) against S. aureus UC-76 SA-1, 8 µg/mL (≈ 25.9 µM) in the experiment with E. faecalis MGH-2 EF 1-1 and 16 µg/mL (≈ 51.7 µM) in the experiment with S. pneumoniae SV1 SP-3.

For the compound `CNC(=O)[C@H]1CN(c2cc(F)c3c(c2)COC(=O)N3C)C(=O)O1` [Example 9, (R)-3-(8-fluoro-1-methyl-2-oxo-2,4-dihydro-1H-benzo[d][1,3]oxazin-6-yl)-N-methyl-2-oxooxazolidine-5-carboxamide], the MIC against S. aureus UC-76 SA-1, in the experiment on E. faecalis MGH-2 EF 1-1 and in the experiment with S. pneumoniae SV1 SP-3 was 8 µg/mL (≈ 24.7 µM) throughout.

Turning to `CC(=O)NC[C@H]1CN(c2cc(F)c3c(c2)COC(=O)N3C)C(=O)O1` [Example 10, (S)—N-((3-(8-fluoro-1-methyl-2-oxo-2,4-dihydro-1H-benzo[d][1,3]oxazin-6-yl)-2-oxooxazolidin-5-yl)methyl)acetamide], the MIC in the experiment with S. aureus UC-76 SA-1 was found to be 2 µg/mL (≈ 5.93 µM); against E. faecalis MGH-2 EF 1-1 it was 4 µg/mL (≈ 11.9 µM); in the experiment with S. pneumoniae SV1 SP-3 it was 2 µg/mL (≈ 5.93 µM).

For `CCC(=O)NC[C@H]1CN(c2cc(F)c3c(c2)COC(=O)N3C)C(=O)O1` [Example 11, (S)—N-((3-(8-fluoro-1-methyl-2-oxo-2,4-dihydro-1H-benzo[d][1,3]oxazin-6-yl)-2-oxooxazolidin-5-yl)methyl)propionamide], the MIC in the experiment with S. aureus UC-76 SA-1, in the experiment on E. faecalis MGH-2 EF 1-1 and in the experiment with S. pneumoniae SV1 SP-3 was 4 µg/mL (≈ 11.4 µM) throughout.

Take `COC(=O)NC[C@H]1CN(c2cc(F)c3c(c2)COC(=O)N3C)C(=O)O1` [Example 12, (S)-methyl (3-(8-fluoro-1-methyl-2-oxo-2,4-dihydro-1H-benzo[d][1,3]oxazin-6-yl)-2-oxooxazolidin-5-yl)methylcarbamate]: the MIC was 4 µg/mL (≈ 11.3 µM) in the experiment with S. aureus UC-76 SA-1, 8 µg/mL (≈ 22.6 µM) against E. faecalis MGH-2 EF 1-1 and 4 µg/mL (≈ 11.3 µM) in the experiment on S. pneumoniae SV1 SP-3.

For `CC(=O)NC[C@H]1CN(c2cc(F)c3c(c2)CCOC(=O)N3C)C(=O)O1` [Example 15, N-{[(SS)-3-(9-fluoro-1-methyl-2-oxo-1,2,4,5-tetrahydro-3,1-benzoxazepin-7-yl)-2-oxo-1,3-oxazolidin-5-yl]methyl}acetamide], the MIC came out at 8 µg/mL (≈ 22.8 µM) in the experiment with S. aureus UC-76 SA-1, 8 µg/mL (≈ 22.8 µM) in the experiment with E. faecalis MGH-2 EF 1-1 and 4 µg/mL (≈ 11.4 µM) against S. pneumoniae SV1 SP-3.

For `CCC(=O)NC[C@H]1CN(c2cc(F)c3c(c2)CCOC(=O)N3C)C(=O)O1` [Example 16, N-{[(5S)-3-(9-fluoro-1-methyl-2-oxo-1,2,4,5-tetrahydro-3,1-benzoxazepin-7-yl)-2-oxo-1,3-oxazolidin-5-yl]methyl}propanamide], the MIC against S. aureus UC-76 SA-1 came out at 16 µg/mL (≈ 43.8 µM); in the experiment with E. faecalis MGH-2 EF 1-1 it was 16 µg/mL (≈ 43.8 µM); in the experiment with S. pneumoniae SV1 SP-3 it was 8 µg/mL (≈ 21.9 µM).

Consider `COC(=O)NC[C@H]1CN(c2cc(F)c3c(c2)CCOC(=O)N3C)C(=O)O1` [Example 17, methyl [(5S)-3-(9-fluoro-1-methyl-2-oxo-1,2,4,5-tetrahydro-3,1-benzoxazepin-7-yl)-2-oxo-1,3-oxazolidin-5-yl]methylcarbamate], for which the MIC amounted to 16 µg/mL (≈ 43.6 µM) against S. aureus UC-76 SA-1, 16 µg/mL (≈ 43.6 µM) with E. faecalis MGH-2 EF 1-1 and 8 µg/mL (≈ 21.8 µM) in the experiment on S. pneumoniae SV1 SP-3.

Regarding `CN1C(=O)OCCc2cc(N3C[C@H](C(N)=O)OC3=O)ccc21` [Example 18, (5R)-3-(1-methyl-2-oxo-1,2,4,5-tetrahydro-3,1-benzoxazepin-7-yl)-2-oxo-1,3-oxazolidine-5-carboxamide], the MIC worked out at 16 µg/mL (≈ 52.4 µM) in the experiment with S. aureus UC-76 SA-1, 32 µg/mL (≈ 105 µM) against E. faecalis MGH-2 EF 1-1 and 32 µg/mL (≈ 105 µM) in the experiment on S. pneumoniae SV1 SP-3.

With `CNC(=O)[C@H]1CN(c2ccc3c(c2)CCOC(=O)N3C)C(=O)O1` [Example 19, (5R)—N-methyl-3-(1-methyl-2-oxo-1,2,4,5-tetrahydro-3,1-benzoxazepin-7-yl)-2-oxo-1,3-oxazolidine-5-carboxamide], the values for the MIC against S. aureus UC-76 SA-1, against E. faecalis MGH-2 EF 1-1 and in the experiment with S. pneumoniae SV1 SP-3 were 16 µg/mL (≈ 50.1 µM), 32 µg/mL (≈ 100 µM) and 32 µg/mL (≈ 100 µM), respectively.

As to `CC(=O)NC[C@H]1CN(c2ccc3c(c2)CCOC(=O)N3C)C(=O)O1` [Example 20, N-{[(5S)-3-(1-methyl-2-oxo-1,2,4,5-tetrahydro-3,1-benzoxazepin-7-yl)-2-oxo-1,3-oxazolidin-5-yl]methyl}acetamide], the MIC in the experiment with S. aureus UC-76 SA-1 is 8 µg/mL (≈ 24 µM); with E. faecalis MGH-2 EF 1-1, 8 µg/mL (≈ 24 µM); in the experiment with S. pneumoniae SV1 SP-3 it was 4 µg/mL (≈ 12 µM).

`CCC(=O)NC[C@H]1CN(c2ccc3c(c2)CCOC(=O)N3C)C(=O)O1` [Example 21, N-{[(5S)-3-(1-methyl-2-oxo-1,2,4,5-tetrahydro-3,1-benzoxazepin-7-yl)-2-oxo-1,3-oxazolidin-5-yl]methyl}propanamide]: the minimum inhibitory concentration (MIC) with S. aureus UC-76 SA-1, in the experiment with E. faecalis MGH-2 EF 1-1 and against S. pneumoniae SV1 SP-3 was 8 µg/mL (≈ 23 µM) throughout.

For `COC(=O)NC[C@H]1CN(c2ccc3c(c2)CCOC(=O)N3C)C(=O)O1` [Example 22, methyl [(5S)-3-(1-methyl-2-oxo-1,2,4,5-tetrahydro-3,1-benzoxazepin-7-yl)-2-oxo-1,3-oxazolidin-5-yl]methylcarbamate], the minimum inhibitory concentration (MIC) with S. aureus UC-76 SA-1, with E. faecalis MGH-2 EF 1-1 and against S. pneumoniae SV1 SP-3 was 8 µg/mL (≈ 22.9 µM) throughout.
